# Experimental data: patent US9796753B2, “N-substituted indenoisoquinolines and syntheses thereof” (Purdue Research Foundation, priority 2005, dated 2017)
# Like-named read-outs stand apart in the source and are kept apart here.
# Tests used:
# CNS SF-539 = assay: COMPARE screening (NCI human cancer cell line screen), cytotoxicity GI50; assay type: cell-based; conditions: Homo sapiens, CNSSF-539, read-out: cytotoxicity (GI50) CNS SF-539
# Summary of the method: (§1)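 Read-out is sulforhodamine B optical density, expressed as a ratio to untreated control and plotted as percentage growth against log10 compound concentration. Exposure lasted 48 h at five concentrations from 100 to 0.01 μM in the NCI60 screen.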
# colon HCT-116 = assay: as above; assay type: cell-based; conditions: Homo sapiens, HCT-116, read-out: cytotoxicity (GI50) colon HCT-116
# Summary of the method: as §1
# lung HOP-62 = assay: as above; assay type: cell-based; conditions: Homo sapiens, HOP-62, read-out: cytotoxicity (GI50) lung HOP-62
# Summary of the method: as §1
# melanoma UACC-62 = assay: as above; assay type: cell-based; conditions: Homo sapiens, UACC-62, read-out: cytotoxicity (GI50) melanoma UACC-62
# Summary of the method: as §1
# ovarian OVCAR-3 = assay: as above; assay type: cell-based; conditions: Homo sapiens, OVCAR-3, read-out: cytotoxicity (GI50) ovarian OVCAR-3
# Summary of the method: as §1
# prostate DU-145 = assay: as above; assay type: cell-based; conditions: Homo sapiens, DU-145, read-out: cytotoxicity (GI50) prostate DU-145
# Summary of the method: as §1
# renal SN12C = assay: as above; assay type: cell-based; conditions: Homo sapiens, SN12C, read-out: cytotoxicity (GI50) renal SN12C
# Summary of the method: as §1
# breast MDA-MB-435 = assay: as above; assay type: cell-based; conditions: Homo sapiens, MDA-MB-435, read-out: cytotoxicity (GI50) breast MDA-MB-435
# Procedure: COMPARE screening. The compounds described herein were examined for antiproliferative activity against the human cancer cell lines in the National Cancer Institute screen (COMPARE screening), in which the activity of each compound was evaluated with approximately 55 different cancer cell lines of diverse tumor origins. […] Therefore, the MGM value represents an overall assessment of toxicity of the compound across numerous cell lines.
# [1] = system: all human cancer cell lines successfully tested; assay: NCI screen mean graph midpoint (MGM) for growth inhibition; assay type: cell-based; conditions: for GI50: Homo sapiens, read-out: MGM GI50
# Summary of the method: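 NCI60 panel cells exposed to compound at 100, 10, 1, 0.1 and 0.01 μM for 48 h, then sulforhodamine B staining. Percentage growth versus control plotted against log concentration; MGM is the midpoint across all lines tested.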
# Human recombinant Top1 = target: T1, Human recombinant Top1 (Homo sapiens, UniProt P11387); assay: Topoisomerase 1-mediated DNA cleavage reactions (B), 117-bp DNA oligonucleotide; assay type: biochemical; design: key to Top1 inhibitory activity (level): 0, no detectable activity; +, weak activity; ++, similar activity to compound 33; +++, greater activity than 33; ++++, equipotent to 32; Ambiguous scores (e.g., between two values) are designated with parentheses (e.g., ++(+) would be between ++ and +++); key to Top1 (compound-induced DNA cleavage due to Top1 inhibition): 0, no detectable activity; +, weak activity; ++, similar activity to compound 5; +++, greater activity than 34; ++++ , equipotent to 32; The (+) ranking indicates the activity lies between two given values; conditions: Table 5; for Top1 inhibitory activity (level): relative to compounds 32 and 33; for Top1 (compound-induced DNA cleavage due to Top1 inhibition): semiquantitative scale relative to 1 μM camptothecin (32) or MJ-III-65 (34)
# T1 construct: made in house
# T1 sequence (P11387 1-765): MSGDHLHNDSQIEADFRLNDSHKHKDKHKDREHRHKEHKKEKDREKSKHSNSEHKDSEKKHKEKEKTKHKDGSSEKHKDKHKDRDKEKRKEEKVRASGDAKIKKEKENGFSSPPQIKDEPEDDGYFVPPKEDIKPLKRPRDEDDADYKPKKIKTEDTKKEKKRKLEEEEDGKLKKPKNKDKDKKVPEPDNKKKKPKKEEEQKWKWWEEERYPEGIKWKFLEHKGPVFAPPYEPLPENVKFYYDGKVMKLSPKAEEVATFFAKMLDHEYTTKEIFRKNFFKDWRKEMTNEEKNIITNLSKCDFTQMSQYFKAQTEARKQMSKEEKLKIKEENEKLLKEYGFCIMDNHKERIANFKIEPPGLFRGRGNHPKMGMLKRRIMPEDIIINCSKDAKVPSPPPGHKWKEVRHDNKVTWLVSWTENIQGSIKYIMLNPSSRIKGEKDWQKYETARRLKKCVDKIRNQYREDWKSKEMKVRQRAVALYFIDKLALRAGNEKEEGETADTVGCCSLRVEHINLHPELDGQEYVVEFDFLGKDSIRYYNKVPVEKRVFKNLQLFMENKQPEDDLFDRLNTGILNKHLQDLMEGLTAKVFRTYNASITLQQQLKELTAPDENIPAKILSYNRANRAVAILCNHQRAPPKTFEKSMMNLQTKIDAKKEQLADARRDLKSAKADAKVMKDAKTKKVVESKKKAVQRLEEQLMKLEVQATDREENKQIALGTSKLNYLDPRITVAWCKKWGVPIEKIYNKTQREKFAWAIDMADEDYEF
# Procedure: Human recombinant Top1 was purified from baculovirus as described in Bailly, C. Curr. Med. Chem. 2000, 7, 39-58. DNA cleavage reactions were prepared as previously reported with the exception of the DNA substrate in Saltz, et al. Oncologist 1997, 2, 402-409.
# Approximately 2 nM radiolabeled DNA substrate was incubated with recombinant Top1 in 20 μL of reaction buffer [10 mM Tris-HCl (pH 7.5), 50 mM KCl, 5 mM MgCl2, 0.1 mM EDTA, and 15 μg/mL BSA] at 25° C. for 20 min in the presence of various concentrations of compounds. […] Aliquots of each reaction mixture were subjected to 20% denaturing PAGE. Gels were dried and visualized using a phosphoimager and ImageQuant software (Molecular Dynamics).
# All of the new indenoisoquinoline derivatives with C-2 side chains were tested in Top1-mediated DNA cleavage assays. For this purpose, a ^32P 3′-end labeled 117-bp DNA fragment was incubated with Top1 and four 10-fold dilutions starting from 100 μM of a tested compound. The DNA fragments were separated on 20% PAGE denaturing gels. The Top1 inhibitory activities were assigned on the basis of the visual inspection of the number and intensities of the gel bands corresponding to Top1-mediated DNA cleavage fragments. […] Ambiguous scores (e.g., between two values) are designated with parentheses (e.g., ++(+) would be between ++ and +++).
# recombinant TDP1 = recombinant TDP1 (Homo sapiens, UniProt Q9NUW8); assay: Gel-based assay measuring the inhibition of recombinant TDP1; assay type: biochemical
# Procedure: A 5′-[^32P]-labeled single-stranded DNA oligonucleotide containing a 3′-phosphotyrosine (N14Y) was generated as described by Dexheimer et al. (J. Med. Chem. 2009, 52, 7122-7131). The DNA substrate was then incubated with 5 μM recombinant TDP1 in the absence or presence of inhibitor for 15 min at room temperature in a buffer containing 50 mM Tris HCl, pH 7.5, 80 mM KCl, 2 mM EDTA, 1 mM DTT, 40 μg/ml BSA and 0.01% Tween-20. Reactions were terminated by the addition of 1 volume of gel loading buffer [99.5% (v/v) formamide, 5 mM EDTA, 0.01% (w/v) xylene cyanol, and 0.01% (w/v) bromophenol blue]. Samples were subjected to a 16% denaturing PAGE and gels were exposed after drying to a PhosphorImager screen (GE Healthcare). Gel images were scanned using a Typhoon 8600 (GE Healthcare) and densitometric analyses were performed using the ImageQuant software (GE Healthcare).
# The TDP1 inhibitory activities of the O-2-substituted indenoisoquinolines were measured by determining their abilities to inhibit the hydrolysis of the phosphodiester linkage between tyrosine and the 3′-end of a DNA oligonucleotide substrate and thus prevent the generation of an oligonucleotide with a free 3′-phosphate (N14P, Scheme 13). Therefore, the disappearance of the gel band for N14P indicates TDP1 inhibition.
# Tyrosyl-DNA phosphodiesterase 1 (TDP1) is a DNA repair enzyme that repairs cytotoxic DNA damage induced by Top1 inhibitors.
# [2] = Table 1, average GI50 of all cell lines tested (approximately 55), test range 10^−8 to 10^−4 molar
# [3] = Table 5, determined in duplicate, read-out: TDP1 (IC50, semiquantitative scale)
# [4] = Table 5, determined in duplicate, read-out: TDP1 inhibitory activity (potency score)
# [5] = Table 7, scores correspond to IC50 ranges, read-out: TDP1 inhibition
# recombinant TDP1, sequence (Q9NUW8 whole entry): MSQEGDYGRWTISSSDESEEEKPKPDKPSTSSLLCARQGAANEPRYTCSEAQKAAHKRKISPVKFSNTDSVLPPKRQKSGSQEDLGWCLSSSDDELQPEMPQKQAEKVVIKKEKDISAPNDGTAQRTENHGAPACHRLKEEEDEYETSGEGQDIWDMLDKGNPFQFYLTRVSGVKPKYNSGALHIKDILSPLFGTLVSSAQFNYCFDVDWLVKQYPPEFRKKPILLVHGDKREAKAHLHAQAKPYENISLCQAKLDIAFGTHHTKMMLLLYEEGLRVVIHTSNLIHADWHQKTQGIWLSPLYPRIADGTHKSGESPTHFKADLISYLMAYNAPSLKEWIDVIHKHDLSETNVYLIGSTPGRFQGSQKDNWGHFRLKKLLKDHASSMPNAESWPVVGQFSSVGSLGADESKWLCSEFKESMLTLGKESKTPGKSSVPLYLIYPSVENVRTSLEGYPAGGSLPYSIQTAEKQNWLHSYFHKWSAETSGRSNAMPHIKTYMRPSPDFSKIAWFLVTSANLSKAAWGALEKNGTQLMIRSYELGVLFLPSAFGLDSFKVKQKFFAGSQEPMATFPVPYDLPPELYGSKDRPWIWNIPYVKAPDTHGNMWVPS
smiles,measurement,setting,value
"Cl.NCCCCCCCn1c2c(c3ccccc3c1=O)C(=O)c1ccccc1-2 [Compound 5aq, 6-(7-Aminoheptyl)-5,6-dihydro-5,11-dioxo-11H-indeno[1,2-c]isoquinoline Hydrochloride]",GI50,CNS SF-539,1.78 µM
same,GI50,colon HCT-116,1.26 µM
same,GI50,lung HOP-62,1.2 µM
same,GI50,melanoma UACC-62,2 µM
same,GI50,ovarian OVCAR-3,1.7 µM
same,GI50,prostate DU-145,0.832 µM
same,GI50,renal SN12C,1.66 µM
same,GI50,breast MDA-MB-435,2.24 µM
same,MGM (mean graph midpoint for growth inhibition),[1]; [2],1.66 ± 0.155 µM
same,melting point,,228 to 231 °C
"Cl.NCCCCCCCCCCCCn1c2c(c3ccccc3c1=O)C(=O)c1ccccc1-2 [Compound 5av, 6-(12-Aminododecyl)-5,6-dihydro-5,11-dioxo-11H-indeno[1,2-c]isoquinoline Hydrochloride]",GI50,CNS SF-539,18.2 µM
same,GI50,lung HOP-62,17 µM
same,GI50,melanoma UACC-62,14.8 µM
same,GI50,ovarian OVCAR-3,17.8 µM
same,GI50,prostate DU-145,19.1 µM
same,GI50,renal SN12C,13.5 µM
same,GI50,breast MDA-MB-435,19.5 µM
same,MGM (mean GI50 across cell lines),[1]; [2],18.2 µM
same,melting point,,175 to 178 °C
"COC1C=c2c3c([nH]c(=O)c2=CC1(CCCN1CCOCC1)OC)-c1cc2c(cc1C3=O)OCO2 (stereo not drawn) [Compound 5q, 3-[(Morpholin-4-yl)-1-propyl]-5,6-dihydro-2,3-dimethoxy-8,9-methylenedioxy-5,11-dioxo-11H-indeno[1,2-c]isoquinoline]",melting point,,290 to 292 °C
"COC1C=c2c3c([nH]c(=O)c2=CC1(CCCN1CCSCC1)OC)-c1cc2c(cc1C3=O)OCO2 (stereo not drawn) [Compound 5r, 3-[(Thiomorpholin-4-yl)-1-propyl]-5,6-dihydro-2,3-dimethoxy-8,9-methylenedioxy-5,11-dioxo-11H-indeno[1,2-c]isoquinoline]",melting point,,306 to 308 °C
"COc1cc2c3c(n(CCCNCCC4COCCN4)c(=O)c2cc1OC)-c1cc2c(cc1C3=O)OCO2 (stereo not drawn) [Compound 5x, 6-[(3-Morpholylethylamino)-1-propyl]-5,6-dihydro-2,3-dimethoxy-8,9-methylenedioxy-5,11-dioxo-11H-indeno[1,2-c]isoquinoline]",melting point,,215 to 217 °C
"COc1cc2c(=O)n(CCCN3CCOCC3)c3c(c2cc1OCCCBr)C(=O)c1cc2c(cc1-3)OCO2 [Compound 19, 2-(3-Bromopropoxy)-3-methoxy-6-(3-morpholinopropyl)-5H-[1,3]dioxolo[4′,5′: 5,6]indeno[1,2-c]isoquinoline-5,12(6H)-dione]",melting point,,197 to 199 °C
"COc1cc2c(=O)n(CCCN3CCOCC3)c3c(c2cc1OCCCN(C)C)C(=O)c1cc2c(cc1-3)OCO2 [Compound 23, 2-(3-(Dimethylamino)propoxy)-3-methoxy-6-(3-morpholinopropyl)-5H-[1,3]dioxolo[4′,5′:5,6]indeno[1,2-c]isoquinoline-5,12(6H)-dione]",Top1 inhibitory activity (level),Human recombinant Top1,+++
same,Top1 (compound-induced DNA cleavage due to Top1 inhibition),Human recombinant Top1,+++
same,IC50,recombinant TDP1; [3],12 to 37 µM
same,IC50,recombinant TDP1; [4],12 to 37 µM
"CCNCCCOc1cc2c3c(n(CCCN4CCOCC4)c(=O)c2cc1OC)-c1cc2c(cc1C3=O)OCO2 [Compound 24, 2-(3-(Ethylamino)propoxy)-3-methoxy-6-(3-morpholinopropyl)-5H-[1,3]dioxolo [4′,5′:5,6]indeno[1,2-c]isoquinoline-5,12(6H)-dione]",Top1 inhibitory activity (level),Human recombinant Top1,+++
same,Top1 (compound-induced DNA cleavage due to Top1 inhibition),Human recombinant Top1,+++
same,IC50,recombinant TDP1; [3],12 to 37 µM
same,IC50,recombinant TDP1; [4],12 to 37 µM
"COc1cc2c(=O)n(CCCN3CCOCC3)c3c(c2cc1OCCCN1CCN(C)CC1)C(=O)c1cc2c(cc1-3)OCO2 [Compound 26, 3-Methoxy-2-(3-(4-methylpiperazin-1-yl)propoxy)-6-(3-morpholinopropyl)-5H-[1,3]dioxolo[4′,5′:5,6]indeno[1,2-c]isoquinoline-5,12(6H)-dione]",Top1 inhibitory activity (level),Human recombinant Top1,+++
same,Top1 (compound-induced DNA cleavage due to Top1 inhibition),Human recombinant Top1,+++
same,TDP1 inhibitory activity (in words),recombinant TDP1,no TDP1 inhibitory activity was observed
same,IC50,recombinant TDP1; [3],> 111 µM
"COc1cc2c(=O)n(CCCN3CCOCC3)c3c(c2cc1OCC(=O)NN)C(O)c1cc2c(cc1-3)OCO2 (stereo not drawn) [Compound 31, 2-((12-Hydroxy-3-methoxy-6-(3-morpholinopropyl)-5-oxo-6,12-dihydro-5H-[1,3]dioxolo[4′,5′:5,6]indeno[1,2-c]isoquinolin-2-yl)oxy)acetohydrazide]",Top1 inhibitory activity (level),Human recombinant Top1,+ or ++
same,Top1 (compound-induced DNA cleavage due to Top1 inhibition),Human recombinant Top1,+
same,IC50,recombinant TDP1; [3],> 111 µM
O=C1c2cc3c(cc2-c2c1c1ccc(F)cc1c(=O)n2CCCNCCO)OCO3 [Compound 38],GI50,[1],0.055 µM
same,IC50,recombinant TDP1; [5],1 to 12 µM
O=C1c2cc3c(cc2-c2c1c1ccc(Cl)cc1c(=O)n2CCCn1ccnc1)OCO3 [Compound 39],GI50,[1],0.024 µM
same,IC50,recombinant TDP1; [5],37 to 111 µM
O=C1c2cc3c(cc2-c2c1c1ccc(Cl)cc1c(=O)n2CCCNCCO)OCO3 [Compound 41],GI50,[1],0.229 µM
same,IC50,recombinant TDP1; [5],1 to 12 µM
O=C1c2cc3c(cc2-c2c1c1cc(F)c(F)cc1c(=O)n2CCCn1ccnc1)OCO3 [Compound 42],GI50,[1],0.03 µM
same,IC50,recombinant TDP1; [5],> 111 µM
O=C1c2cc3c(cc2-c2c1c1cc(Cl)c(Cl)cc1c(=O)n2CCCn1ccnc1)OCO3 [Compound 44],GI50,[1],0.017 µM
same,IC50,recombinant TDP1; [5],> 111 µM
